From patent publication US10065950B2, “Substituted thiazoles as HIV integrase inhibitors” (Japan Tobacco Inc., priority 2010, dated 2018)

Molecular target: HIV-1 pNL4-3 integrase (Human immunodeficiency virus type 1 group M subtype B (isolate NY5) (HIV-1), UniProt P12497)
Assay: Determination of enzyme (HIV integrase) inhibitory activity
Type: biochemical
Details: calculated from inhibition rate (fluorescence)
Experimental: The following explains evaluation methods of the HIV integrase inhibitory activity of the compound of the present invention.
A full-length gene sequence (Accession No.: M19921) of HIV-1 pNL4-3 integrase was inserted into restriction enzyme Nde I and Xho I sites of plasmid pET21a(+) (manufactured by Novagen) to construct an integrase expression vector pET21a-IN-Wild type.
Escherichia coli recombinant BL21(DE3) transformed with plasmid pET21a-IN-Wild type obtained in (i) was shake cultured at 30° C. in a liquid medium containing ampicillin. When the culture reached the logarithmic growth phase, isopropyl-β-D-thiogalactopyranoside was added to promote expression of integrase gene. The culture was continued for 5 hr to promote accumulation of the integrase protein. The recombinant E. coli was collected in pellets by centrifugal separation and preserved at −80° C.
This Escherichia coli was suspended in Lysis buffer (50 mM Tris-HCl (pH 7.6), 10 mM MgCl2, 5 mM DTT), and disrupted by repeating treatments of pressurization and depressurization, and insoluble fraction was collected by centrifugation at 4° C., 18,000 rpm for 60 min. This was suspended in Lysis buffer containing a protease inhibitor, […] and 10 mM CHAPS were added, and the mixture was stirred at 4° C. for 30 min. Water-soluble fraction was collected by centrifugation at 4° C., 9,000 rpm for 30 min. The obtained fraction was diluted with a column buffer (50 mM Tris-HCl (pH 7.6), 1 mM DTT, 10% Glycerol, 10 mM CHAPS) to 5-fold, and the mixture was applied to heparin column (HiPrep 16/10 Heparin FF column: manufactured by GE Healthcare Bio-Sciences). Using a column buffer containing 1M NaCl, a protein was eluted with 0-1M NaCl concentration gradient, and an eluted fraction containing an integrase protein was collected. The obtained fraction was diluted 5-fold with a column buffer (50 mM Tris-HCl (pH 7.6), 1 mM DTT, 10% Glycerol, 10 mM CHAPS), and the mixture was applied to cation exchange column (Mono-S column: manufactured by GE Healthcare Bio-Sciences). Using a column buffer containing 1M NaCl, a protein was eluted with 0-1M NaCl concentration gradient, and an eluted fraction containing an integrase protein was collected. The obtained fractions of the integrase protein were collected, and preserved at −80° C.
The following DNA synthesized by FASMAC was dissolved in TE buffer (10 mM Tris-hydrochloric acid (pH 8.0), 1 mM EDTA) and mixed with donor DNA, target DNA, and each complementary strand (+ and − strands) to 1 μM. The mixture was heated at 95° C. for 5 min, 80° C. for 10 min, 70° C. for 10 min, 60° C. for 10 min, 50° C. for 10 min and 40° C. for 10 min and kept at 25° C. to give a double stranded DNA, which was used for the test.
Donor DNA (+strand having biotin attached to the 5′ terminal)
Target DNA (+, − strands both having digoxigenin attached to the 3′ terminal)
The donor DNA was diluted with TE buffer to 20 nM, of which 50 μL was added to each well of streptavidin-coated black plate (manufactured by PIAS Corporation) and allowed to adsorb at 37° C. for 20 min. The plate was washed with phosphate buffer (Dulbecco's PBS, Sanko Junyaku Co., Ltd.) containing 0.1% Tween 20 and phosphate buffer. Then, an enzyme reaction mixture (70 μL), a test substance (10 μL) diluted with the enzyme reaction mixture and 0.75 μM integrase protein (10 μL) were added to each well and the mixture was reacted at 37° C. for 60 min. composition of enzyme reaction mixture: 30 mM MOPS (3-morpholinopropanesulfonic acid), 5 mM magnesium chloride, 3 mM DTT (dithiothreitol), 0.1 mg/mL BSA (bovine serum albumin), 5% glycerol, 10% DMSO (dimethyl sulfoxide), 0.01% Tween 20.
Then, 25 nM target DNA (10 μL) was added, and the mixture was reacted at 37° C. for 20 min and washed with phosphate buffer containing 0.1% Tween 20 to stop the reaction. […]

With CC(C)N1CC(CC(=O)N2CCCCC2)n2cc(-c3ncc(Cc4ccc(F)cc4F)s3)c(=O)c(O)c2C1=O (stereo not drawn) [Example 41] the IC50 was 7.2 nM.

In the case of CCN1C[C@](C)(COCCOC)n2cc(-c3nnc(Cc4ccc(F)cc4)s3)c(=O)c(O)c2C1=O [Example 296], the IC50 is reported as 19 nM.

For COC[C@@H]1Cn2cc(-c3nnc(Cc4ccc(F)cc4)s3)c(=O)c(O)c2C(=O)N1C1CCC1 [Example 195], the IC50 was 5.9 nM.

CC(C)CNC(=O)C1CN(C(C)C)C(=O)c2c(O)c(=O)c(-c3ncc(Cc4ccc(F)cc4F)s3)cn21 (stereo not drawn) [Example 32] was tested, and the IC50 was 7.7 nM.

CCN1C(=O)c2c(O)c(=O)c(-c3nnc(Cc4ccc(F)cc4)s3)cn2C[C@@H]1[C@@H](C)OC [Example 395] showed an IC50 of 10 nM.

In the case of CC(C)N1C(=O)c2c(O)c(=O)c(-c3nnc(Cc4ccc(F)cc4F)s3)cn2C[C@H]1CNS(C)(=O)=O [Example 158], the IC50 is reported as 5.4 nM.

CCN(CC)C(=O)CC1CN(C(C)C)C(=O)c2c(O)c(=O)c(-c3ncc(Cc4ccc(F)cc4F)s3)cn21 (stereo not drawn) [Example 77] was tested, and the IC50 was 11 nM.

For CC(C)N1C[C@H](Cn2cnnn2)n2cc(-c3nnc(Cc4ccc(F)cc4)s3)c(=O)c(O)c2C1=O [Example 359], the IC50 was 4.8 nM.

In the case of CC(C)C(=O)N(C)C[C@@H]1Cn2cc(-c3nnc(Cc4ccc(F)cc4F)s3)c(=O)c(O)c2C(=O)N1C(C)C [Example 159], the IC50 is reported as 6.6 nM.

With CCN(C)C(=O)C1(C)CN(C)C(=O)c2c(O)c(=O)c(-c3ncc(Cc4ccc(F)cc4F)s3)cn21 (stereo not drawn) [Example 161] the IC50 was 7.8 nM.

With COC[C@@H]1Cn2cc(-c3nnc(Cc4ccc(F)cc4)s3)c(=O)c(O)c2C(=O)N1C1CCCC1 [Example 196] the IC50 was 6.7 nM.

In the case of CCN1C[C@@](C)(C(=O)N2CCC2)n2cc(-c3ncc(Cc4ccc(F)cc4)s3)c(=O)c(O)c2C1=O [Example 271], the IC50 is reported as 11 nM.

Molecule CCNC(=O)[C@@]1(C)CN(C(C)C)C(=O)c2c(O)c(=O)c(-c3nnc(Cc4ccc(F)cc4F)s3)cn21 [Example 173] has an IC50 of 16 nM.

Work on CC[C@@H](C)N1C[C@@H](COC)n2cc(-c3nnc(Cc4ccc(F)cc4)s3)c(=O)c(O)c2C1=O [Example 167] yielded an IC50 of 10 nM.

COCCOC[C@H]1Cn2cc(-c3nnc(Cc4ccc(F)cc4F)s3)c(=O)c(O)c2C(=O)N1CC(C)C [Example 55] gave an IC50 of 21 nM.

CC(C)N1C[C@](C)(CN(C)S(C)(=O)=O)n2cc(-c3nnc(Cc4ccc(F)cc4F)s3)c(=O)c(O)c2C1=O [Example 210] was tested, and the IC50 was 23 nM.

COC[C@@H]1[C@H](C)N(C(C)C)C(=O)c2c(O)c(=O)c(-c3nnc(Cc4ccc(F)cc4)s3)cn21 [Example 356] gave an IC50 of 8.9 nM.

In the case of CC[C@@H]1Cn2cc(-c3nnc(Cc4ccc(F)cc4)s3)c(=O)c(O)c2C(=O)N1CC [Example 291], the IC50 is reported as 8.7 nM.

For COCCOC[C@H]1CN(CC(C)C)C(=O)c2c(O)c(=O)c(-c3ncc(Cc4ccc(F)cc4F)s3)cn21 [Example 57], the IC50 was 11 nM.

CCN(C)C(=O)[C@]1(COC)CN(C(C)C)C(=O)c2c(O)c(=O)c(-c3nnc(Cc4ccc(F)cc4)s3)cn21 [Example 396] was tested, and the IC50 was 15 nM.

Work on C[C@@H]1Cn2cc(-c3nnc(Cc4ccc(F)cc4)s3)c(=O)c(O)c2C(=O)N1CC1CC1 [Example 279] yielded an IC50 of 6.3 nM.

CC(=O)N(C)CC1(C)CN(C(C)C)C(=O)c2c(O)c(=O)c(-c3ncc(Cc4ccc(F)cc4F)s3)cn21 (stereo not drawn) [Example 139] gave an IC50 of 12 nM.

For COCCOC[C@@]1(C)CN(C2CC2)C(=O)c2c(O)c(=O)c(-c3nnc(Cc4ccc(F)cc4)s3)cn21 [Example 297], the IC50 was 20 nM.

Work on CCNC(=O)C1CN(C(C)C)C(=O)c2c(O)c(=O)c(-c3ncc(Cc4ccc(F)cc4F)s3)cn21 (stereo not drawn) [Example 25] yielded an IC50 of 11 nM.

CC(C)N1CC(CN)n2cc(-c3ncc(Cc4ccc(F)cc4F)s3)c(=O)c(O)c2C1=O (stereo not drawn) [Example 66] showed an IC50 of 6.4 nM.

COC[C@H]1Cn2cc(-c3nnc(Cc4ccc(F)cc4F)s3)c(=O)c(O)c2C(=O)N1C1CCC1 [Example 98] showed an IC50 of 7.5 nM.

Work on CCNC(=O)[C@]1(C)CN(C(C)C)C(=O)c2c(O)c(=O)c(-c3ncc(Cc4ccc(F)cc4)s3)cn21 [Example 226] yielded an IC50 of 13 nM.

Molecule CC(C)N1C[C@](C)(C(=O)N2CCCC2)n2cc(-c3nnc(Cc4ccc(F)cc4F)s3)c(=O)c(O)c2C1=O [Example 170] has an IC50 of 12 nM.

CCNC(=O)CC1CN(C2CC2)C(=O)c2c(O)c(=O)c(-c3ncc(Cc4ccc(F)cc4F)s3)cn21 (stereo not drawn) [Example 165] gave an IC50 of 7.4 nM.

Work on CCNC(=O)[C@@]1(C)CN(CC)C(=O)c2c(O)c(=O)c(-c3nnc(Cc4ccc(F)cc4)s3)cn21 [Example 201] yielded an IC50 of 9.5 nM.

For CC(C)N1C(=O)c2c(O)c(=O)c(-c3nnc(Cc4ccc(F)cc4F)s3)cn2CC1CCO (stereo not drawn) [Example 90], the IC50 was 6.7 nM.

Work on CO[C@@H]1CCN(C(=O)[C@@]2(C)CN(C(C)C)C(=O)c3c(O)c(=O)c(-c4ncc(Cc5ccc(F)cc5)s4)cn32)C1 [Example 213] yielded an IC50 of 15 nM.

Molecule CCNC(=O)C1(C)CN(C)C(=O)c2c(O)c(=O)c(-c3ncc(Cc4ccc(F)cc4F)s3)cn21 (stereo not drawn) [Example 153] has an IC50 of 5.8 nM.

COC[C@H]1[C@@H](C)N(CC2CC2)C(=O)c2c(O)c(=O)c(-c3nnc(Cc4ccc(F)cc4)s3)cn21 [Example 259] showed an IC50 of 9 nM.

With CC(C)N1C[C@@H](C(C)(C)C)n2cc(-c3nnc(Cc4ccc(F)cc4)s3)c(=O)c(O)c2C1=O [Example 192] the IC50 was 15 nM.

Work on CC(C)C(=O)NCC1CN(C(C)C)C(=O)c2c(O)c(=O)c(-c3ncc(Cc4ccc(F)cc4F)s3)cn21 (stereo not drawn) [Example 69] yielded an IC50 of 13 nM.

With CCN1C(=O)c2c(O)c(=O)c(-c3nnc(Cc4ccc(F)cc4)s3)cn2C[C@H]1[C@H](C)OC [Example 332] the IC50 was 12 nM.

CC(C)N1C(=O)c2c(O)c(=O)c(-c3nnc(Cc4ccc(F)cc4)s3)cn2C[C@@]1(C)C(=O)N1CCOCC1 [Example 311] was tested, and the IC50 was 9.7 nM.

CCN1C(=O)c2c(O)c(=O)c(-c3nnc(Cc4ccc(F)cc4)s3)cn2C[C@@H]1COC [Example 113] was tested, and the IC50 was 13 nM.

With CCNC(=O)[C@]1(C)CN(CC)C(=O)c2c(O)c(=O)c(-c3ncc(Cc4ccc(F)cc4)s3)cn21 [Example 249] the IC50 was 12 nM.

CCN1C(=O)c2c(O)c(=O)c(-c3nnc(Cc4ccc(F)cc4)s3)cn2[C@H](C)[C@H]1COC [Example 305] showed an IC50 of 9.5 nM.

Work on CO[C@@H](C)COC[C@H]1CN(C(C)C)C(=O)c2c(O)c(=O)c(-c3nnc(Cc4ccc(F)cc4)s3)cn21 [Example 385] yielded an IC50 of 8.2 nM.

CCN1C(=O)c2c(O)c(=O)c(-c3nnc(Cc4ccc(F)cc4)s3)cn2C[C@H]1C(C)C [Example 286] was tested, and the IC50 was 7.8 nM.

Molecule CCN1C(=O)c2c(O)c(=O)c(-c3ncc(Cc4ccc(F)cc4)s3)cn2[C@@H](COC)[C@H]1C [Example 261] has an IC50 of 11 nM.

COCCOC[C@H]1CN(CC2CC2)C(=O)c2c(O)c(=O)c(-c3nnc(Cc4ccc(F)cc4F)s3)cn21 [Example 119] was tested, and the IC50 was 11 nM.

With CCN1C[C@](C)(C(=O)N(C)C)n2cc(-c3nnc(Cc4ccc(F)cc4)s3)c(=O)c(O)c2C1=O [Example 199] the IC50 was 8.4 nM.

COCCOC[C@@H]1Cn2cc(-c3nnc(Cc4ccc(F)cc4F)s3)c(=O)c(O)c2C(=O)N1C(C)C [Example 54] gave an IC50 of 7.5 nM.

In the case of CC(C)N1CC(CC(=O)N(C)C)n2cc(-c3ncc(Cc4ccc(F)cc4F)s3)c(=O)c(O)c2C1=O (stereo not drawn) [Example 21], the IC50 is reported as 9.4 nM.

Work on CCN1C[C@H](COCCOC)n2cc(-c3nnc(Cc4ccc(F)cc4F)s3)c(=O)c(O)c2C1=O [Example 125] yielded an IC50 of 11 nM.

CCN1C(=O)c2c(O)c(=O)c(-c3nnc(Cc4ccc(F)cc4)s3)cn2[C@@H](COC)[C@H]1C [Example 258] gave an IC50 of 9.3 nM.

Molecule CC(C)N1CC2(CC2)n2cc(-c3nnc(Cc4ccc(F)cc4)s3)c(=O)c(O)c2C1=O [Example 175] has an IC50 of 9.5 nM.
